The values that follow are results of earlier work, collected in patent US11491171B2, “Synthetic composition and method for modulating emotion and mood disorders” (GLYCOM A/S, priority 2015, dated 2022).

In this series the test system is mice.

Take 6′-O-sialyllactose [6′-SL]: the “behavioural responses during stressor exposure” value is recorded as “support normal behavioural responses”.

In the case of `CC(=O)N[C@H]1[C@H]([C@H](O)[C@H](O)CO)O[C@@](O[C@H]2[C@@H](O)[C@@H](CO)O[C@@H](O[C@H]3[C@H](O)[C@@H](O)C(O)O[C@@H]3CO)[C@@H]2O)(C(=O)O)C[C@@H]1O` (some centres unmarked) [3′-SL, 3′-O-sialyllactose], the “behavioural responses during stressor exposure” value is on record as “support normal behavioural responses”.
